Experimental data from patent US20250051805A1, “METHODS” (Commonwealth Scientific and Industrial Research Organisation, priority 2021, published 2025).

Columns and labels:
[1] = tested on: E. coli transformed to express VHPO; assay: Bromoform biosynthesis in growing E. coli cultures expressing VHPO with inhibitors or oleic acid; assay type: cell-based, Escherichia coli; conditions: for production of bromoform in culture: 0.1% oleic acid, 1% tergitol, with amino-triazole to inhibit catalase; for bromoform observed in culture: 0.5 g/L tannic acid together with 10 mM 3-amino-1,2,4-triazole, 18 hours
Procedure: (§1) VHPO was expressed in E. coli isolate BL21 (DE3) as described above. Alongside IPTG (0.2 mM) the culture was also supplemented with 50 mM KBr, 1 mM Na3VO4, 10 mM 3-amino,1,2,4-triazole, and 0.5 g/L tannic acid or 0.1% oleic acid (emulsified with 1% tergitol (Merck, Ma USA)). Typically, 10 mL LB cultures were grown in 50 mL tubes with the lids closed. Vented tubes led to the loss of bromoform by evaporation. Cells were harvested by centrifugation and resuspended in 1 mL of brine (6 M NaCl), transferred into 20 mL headspace GC vials and sealed with a magnetic screw cap before analysis by SPME-GC-MS.
This strategy utilizes tannic acid to inhibit FabG to promote the accumulation acetoacyl-acyl-carrier-proteins (Wu et al., 2010), alongside 3-amino-1,2,4-triazol to inhibit catalase and promote the accumulation of H2O2(Meir and Yagil, 1985). FabG is β-ketoacyl-ACP reductase [EC 1.1.1.100], an enzyme that catalyses the reduction of acetoacyl-acyl carrier proteins during fatty acid synthesis. Catalase consumes the intracellular H2O2 which is required for VHPO activity. Both inhibitors were added to cultures E. coli transformed to express VHPO upon induction with IPTG. The VHPO gene from the marine cyanobacterium Acaryochloris marina MBIC110174 was synthesized by Epoch Life Science Inc. (Tx, USA) using the published gene sequence (GenBank Accession CP000828-nucleotides 5020736-5018817). This gene sequence was codon optimized for E. coli expression and cloned into expression vector pACYCDuet1 under the regulatory control of a LacI repressor and T7 promoter and terminator sequences. Cell growth was allowed to continue for 18 hours in the presence of these molecules with the addition of KBr and Na3VO4, before harvesting the cells by centrifugation and analysis of bromoform levels.
as §1, with “Alongside” for “VHPO was expressed in E. coli isolate BL21 (DE3) as described above. Alongside”

[2] = tested on: S. cerevisiae BY4741 transformed with pRS-ePST1-AmVHPO; assay: Bromoform synthesis by S. cerevisiae with peroxisome-targeted VHPO in SDUGGO media; assay type: cell-based, Saccharomyces cerevisiae; conditions: 0.1% oleic acid together with 3-amino-1,2,4-triazol
Procedure: 10 mL seed cultures of were inoculated with a single colony of BY4741 transformed with pRS-ePST1-AmVHPO in SD and grown at 220 rpm, 30° C. overnight. These were used to inoculate 10 mL cultures of SDUGGO media (uracil (0.67% yeast nitrogenous base without amino acids, 0.192% Merck yeast synthetic dropout medium supplement without uracil, 10% glycerol, 0.1% glucose, 100 mM KBr, 1 mM Na3VO4, 100 mM MOPS (pH 6.5), 0.1% oleic acid emulsified in 1% tergitol) at an initial OD600 of 2.0, and incubated for a further 24 hours at 220 rpm, 30° C. As with E. coli, samples were grown in 50 mL tubes with the lids closed to minimize the loss of bromoform by evaporation. Cells were harvested by centrifugation and resuspended in 1 mL of brine (6 M NaCl), transferred into 20 mL headspace GC vials and sealed with a magnetic screw cap before analysis by SPME-GC-MS.
With this plasmid in hand, the media was adapted to allow for maximum flux through beta-oxidation, incorporating both oleic acid to induce β-oxidation and glycerol as a non-repressing carbon source. A small amount of glucose (0.1%) was also included to stimulate initial cell growth, alongside Mops buffer (pH 6.5), which improved bromoform production compared with unbuffered cultures. KBr and Na3VO4 were also added to allow for VHPO activity.

[3] = tested on: E. coli expressing the A. marina VHPO gene; assay: Bromoform production by E. coli expressing A. marina VHPO with 1,3-dicarbonyl substrates of Table 4; assay type: cell-based, Escherichia coli; conditions: 1 mM substrate, 100 mM H2O2, 24 hours room temperature; FIG. 8
Procedure: A sample with no additional substrate was also run as a control experiment. Samples (1 mL) were incubated in sealed tubes at room temperature for 24 hours. 10 μL samples from each were withdrawn and added to 1 mL brine to improve phase separation16 and placed in a 20 mL GC vial, which were then sealed with magnetic screw caps (Agilent). The head space of each sample was analyzed by solid phase microextraction (SPME) GC-MS.
To test for bromoform production E. coli cells were resuspended in 1 mL water/100 mL culture volume and 20% v/v of this cell suspension was added to a solution of substrate listed in Table 4 in addition to 100 mM HEPES (pH 7.4), 20 mM KBr, 1 mM Na3VO4, and 100 mM H2O2. Samples (1 mL) were incubated in sealed tubes at room temperature for 24 hours. 10 μL samples from each were withdrawn and added to 1 mL brine in a GC vial before sealing. The head space of each sample was analysed by solid phase microextraction (SPME) GC/MS as above. Bromoform was quantified by comparison with a standard curve prepared from authentic samples of bromoform as described above.

[4] = target: T1, VHPO extracted from Corallina officinalis (Corallina officinalis, UniProt Q8LLW7); assay: Bromoform synthesis by extracted enzyme; assay type: biochemical; conditions: 0.1 U VHPO, 10 mM substrate, 50 mM KBr, 50 mM H2O2
T1 construct: VHPO extracted from Corallina officinalis (Sigma); purchased Sigma; host or cells: extracted from the red alga Corallina officinalis (natural source)
T1 sequence (Q8LLW7 1-598): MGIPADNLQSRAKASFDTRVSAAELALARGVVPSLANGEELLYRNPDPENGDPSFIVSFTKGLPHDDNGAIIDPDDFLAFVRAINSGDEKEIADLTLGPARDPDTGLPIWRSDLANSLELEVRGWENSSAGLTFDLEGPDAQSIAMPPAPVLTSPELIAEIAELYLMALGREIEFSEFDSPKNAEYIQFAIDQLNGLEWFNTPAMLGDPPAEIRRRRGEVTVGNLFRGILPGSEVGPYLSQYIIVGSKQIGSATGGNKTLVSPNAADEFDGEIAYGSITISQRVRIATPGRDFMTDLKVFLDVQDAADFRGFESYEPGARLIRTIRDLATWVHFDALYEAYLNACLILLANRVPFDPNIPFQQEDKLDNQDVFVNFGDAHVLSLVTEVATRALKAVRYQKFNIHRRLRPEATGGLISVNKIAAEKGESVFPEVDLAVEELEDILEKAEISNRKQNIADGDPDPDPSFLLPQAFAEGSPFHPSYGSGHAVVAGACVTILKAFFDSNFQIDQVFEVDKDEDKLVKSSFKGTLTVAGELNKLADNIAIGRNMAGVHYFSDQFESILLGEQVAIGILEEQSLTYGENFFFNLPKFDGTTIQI
Procedure: The whole reaction (100 μL) was transferred to a GC-Headspace vial and left at room temperature until analysis by SPME-GCMS as before. Relative bromoform levels were assessed as described above.

[5] = cited from earlier work
[6] = tested on: E. coli expressing the A. marina VHPO gene; assay: Bromoform production by E. coli cells expressing A. marina VHPO with Table 3 substrates (SPME-GC/MS); assay type: cell-based, Escherichia coli; conditions: 1 mM substrate, 50 mM H2O2, 24 hours room temperature; compared with the other samples of Table 3
Procedure: Transformed E. coli were then grown in LB with 30 μg/mL chloramphenicol at 37° C. 220 rpm, until OD600 ˜0.6. IPTG 0.2 mM was then added and the cultures transferred to 28° C. with shaking at 220 rpm for a further 18 hours. Cells were harvested by centrifugation and kept at −20° C. before further use.
To test for bromoform production E. coli cells were resuspended in 1 mL water/100 mL culture volume and 20% v/v of this cell suspension was added to a solution of substrate listed below in Table 3, 100 mM HEPES (pH 7.4), 20 mM KBr, 1 mM Na3VO4, and 50 mM H2O2. Samples (100 μL) were incubated in sealed GC vials at room temperature for 24 hours. The head space of each sample was analysed by solid phase microextraction (SPME) GC/MS using a 7890A series gas chromatograph, a 5975C inert XL MSD mass selective detector and a MPS2 Gerstel multipurpose autosampler. Bromoform was identified in samples by comparison of the retention time with an authentic standard (Sigma, USA) and by mass spectral matching using the NIST/EPA/NIH Mass Spectral Library (version 2014). Relative bromoform quantities were measured by integration of the m/z=250 signal in extracted ion chromatograms generated using Agilent Mass Hunter software (version 10.0).

[7] = tested on: E. coli expressing the A. marina VHPO gene; assay: Time course of bromoform production from acetylacetone by the E. coli cell suspension with repeated H2O2 addition; assay type: cell-based, Escherichia coli
Procedure: It was hypothesized that with sufficient hydrogen peroxide supply full conversion to bromoform could be achieved. To this end an additional reaction was set up with 10% E. coli cell suspension 100 mM HEPES (pH 7.4), 100 mM KBr, 1 mM Na3VO4, and 400 mM H2O2 added to initiate the reaction, then again after 2 and 4 hours. 10 μL of this reaction was sampled at 0, 20, 60, 120, 180, 240, and 360 minutes, the reaction was stopped by addition of 1 mL of ice cold brine and samples were stored in sealed GC vials at −20° C. before analysis by SPME-GC/MS as above. Bromoform was quantified by comparison with a standard curve prepared from authentic samples of bromoform, added to control samples (identical to the reaction, except containing no bromide), to account for matrix effects. The time course and standard curve is shown below in FIG. 7.

CCCCCCCC/C=C\CCCCCCCC(=O)O [oleic acid]
production of bromoform in culture [1]: trace amounts | bromoform detected in the cell pellet [2]: only when both oleic acid and 3-amino-1,2,4-triazol were added

CC1(C)CC(=O)CC(=O)C1 [5,5-dimethyl-1,3-cyclohexanedione]
bromoform production [3]: increase in bromoform production | increase in bromoform concentration relative to acetone ([4]; listed as dimedone): 51 fold | increase in bromoform concentration relative to acetone ([4]; listed as dimidone): up to 50 fold | pKa (H2O solvent reference) [5]: 5.2 (Brodwell, personal

Nc1nc[nH]n1 [3-amino-1,2,4-triazol]
production of bromoform in culture [1]: trace amounts | bromoform observed in culture [1]: only observed when both inhibitors were added | bromoform detected in the cell pellet [2]: only when both oleic acid and 3-amino-1,2,4-triazol were added

O=C(OC[C@H]1O[C@@H](OC(=O)c2cc(O)c(O)c(OC(=O)c3cc(O)c(O)c(O)c3)c2)[C@H](OC(=O)c2cc(O)c(O)c(OC(=O)c3cc(O)c(O)c(O)c3)c2)[C@@H](OC(=O)c2cc(O)c(O)c(OC(=O)c3cc(O)c(O)c(O)c3)c2)[C@@H]1OC(=O)c1cc(O)c(O)c(OC(=O)c2cc(O)c(O)c(O)c2)c1)c1cc(O)c(O)c(OC(=O)c2cc(O)c(O)c(O)c2)c1 [tannic acid]
bromoform observed in culture [1]: only observed when both inhibitors were added

CCOC(=O)CC(C)=O [ethyl acetoacetate]
bromoform production [3]: increase in bromoform production | pKa (H2O solvent reference) [5]: 10.7 (Brodwell, personal

CCC(=O)CC(=O)CC [3,5-heptanedione]
bromoform production [3]: increase in bromoform production

CC(=O)CC(C)=O [acetylacetone]
increase in bromoform production [6]: 10 fold | amount of bromoform synthesised ([7]; 400 mM H2O2 added at start and again after 2 and 4 hours): 5 mg/mL | conversion to bromoform (yield based on acetylacetone) ([7]; after three hours, 400 mM H2O2 added at start and again after 2 and 4 hours): 97% | part of acetylacetone converted rapidly to bromoform ([7]; initial phase of the reaction): Approximately half | bromoform production [3]: increase in bromoform production
